The record followed here is publication PMC8507746, “The FHP01 DDX3X Helicase Inhibitor Exerts Potent Anti-Tumor Activity In Vivo in Breast Cancer Pre-Clinical Models” (Cancers, 2021).

For data set [1], the target named is T1, HA-DDX3X immunoprecipitated from 293T cells (Homo sapiens, UniProt O00571).
T1 construct: host or cells: 293T cells, transient transfection, anti-HA immunoprecipitation; protein used on beads
The data set is described as follows: Qualitative in vitro helicase assay with immunoprecipitated HA-DDX3X (dsRNA unwinding). Conditions: human protein immunoprecipitated from 293T cells. The format is biochemical. The protocol:
293T cells (3 × 10^5) were seeded in 6-well plates and, after 24 h, transfected with 1 μg of HA-DDX3 (Addgene plasmid # 44975) by using the Lipofectamine reagent (Thermo Fischer Scientific, Waltham, MA, USA). After 36 h, cells were lysed in NP-40 Lysis Buffer (20 mM HEPES pH = 7.5, 10 mM EGTA pH = 8, 40 mM β-glycerolphosphate, 1% NP40, 2.5 mM MgCl2, 2 mM Orthovanadate, 2 mM NaF, 1 mM DTT, and 1X protease inhibitors mixture) and 2 mg of proteins were immunoprecipitated with anti-HA antibodies (Covance, Princeton, NJ, USA) in NP40 lysis buffer. Immunoprecipitated samples were washed twice with lysis buffer and one time in helicase reaction buffer (50 mM Tris HCl pH = 8, 1 mM DTT, 5% glycerol, 10 mM MgCl2). Beads were then resuspended in 100 μL in helicase reaction buffer. […]
Ultimately, reactions were performed in a final volume 100 μL of helicase reaction buffer plus ATP 4 mM, 30 μL of beads used to immunoprecipitate HA-DDX3X, 20 nM of 18/36mer dsRNA, and 100 nM of competitor at 37 °C for 1 h and stopped by adding 10 μL of a stopping solution (EDTA 60 mM pH = 8, 40% glycerol, 0,6% SDS, 1% Orange G). […] Quantification of the ssRNA was performed by the ImageJ software (National Institutes of Health, Bethesda, MD, USA).

Data set [2] is described as follows: Pharmacokinetic profiling, plasma concentration in mice. The format is in vivo, Swiss Albino mice. As for the experimental part:
These studies were performed at the GVKBioscience Pvt. LTD Contract Research and Development Organization (CRDO). Animals were housed in cages with clean bedding. Adult Swiss Albino male mice (weight = 20–35 g) were maintained and monitored for good health in accordance with GVKBioscience Pvt. LTD Test Facility SOPs and at the discretion of the laboratory animal veterinarian. Certified rodent diet was provided, and water was available ad libitum. A periodic analysis of the water was performed, and the results have been archived at the Test Facility. Environmental controls for the animal room were set to maintain a temperature of 22 to 25 °C, humidity of 40–70% relative humidity, and a 12-h light/12-h dark cycle. Animals have been dosed i.v. with 1 mg/kg of FHP01 i.p. with 10 mg/kg of compound or p.o. through gastric gavage needle with 50 mg/kg of compound. Next, mice were anesthetized using gaseous anesthesia and blood samples were collected at each time point, from 3 mice of respective group. After collection of blood samples at each time point, the blood samples were stored on ice, prior to centrifugation. Blood samples were centrifuged at 1540 rcf (5000 rpm), 4 °C for 10 min to separate plasma. Plasma was transferred to pre-labeled micro-centrifuge tubes and promptly frozen at −80 °C until analysis. Samples have been identified by test item, group, animal number, and collection time point. A fit-for-purpose bioanalytical method was developed for analyzing the plasma samples. One set of nine standards have been run before the sample batch and used for plotting the calibration curve. Quality control (QC) samples have been prepared at a minimum of three concentrations, i.e., LQC (not more than 5 times to that of lowest standard concentration), HQC (not less than 75% of the highest standard concentration), and MQC (between the low and high concentration). Minimum of 6 QC samples (three concentrations in duplicate). One Set of QC (LQC, MQC, and HQC) samples have been analyzed before and after the sample batch.

T1 sequence (O00571 whole entry): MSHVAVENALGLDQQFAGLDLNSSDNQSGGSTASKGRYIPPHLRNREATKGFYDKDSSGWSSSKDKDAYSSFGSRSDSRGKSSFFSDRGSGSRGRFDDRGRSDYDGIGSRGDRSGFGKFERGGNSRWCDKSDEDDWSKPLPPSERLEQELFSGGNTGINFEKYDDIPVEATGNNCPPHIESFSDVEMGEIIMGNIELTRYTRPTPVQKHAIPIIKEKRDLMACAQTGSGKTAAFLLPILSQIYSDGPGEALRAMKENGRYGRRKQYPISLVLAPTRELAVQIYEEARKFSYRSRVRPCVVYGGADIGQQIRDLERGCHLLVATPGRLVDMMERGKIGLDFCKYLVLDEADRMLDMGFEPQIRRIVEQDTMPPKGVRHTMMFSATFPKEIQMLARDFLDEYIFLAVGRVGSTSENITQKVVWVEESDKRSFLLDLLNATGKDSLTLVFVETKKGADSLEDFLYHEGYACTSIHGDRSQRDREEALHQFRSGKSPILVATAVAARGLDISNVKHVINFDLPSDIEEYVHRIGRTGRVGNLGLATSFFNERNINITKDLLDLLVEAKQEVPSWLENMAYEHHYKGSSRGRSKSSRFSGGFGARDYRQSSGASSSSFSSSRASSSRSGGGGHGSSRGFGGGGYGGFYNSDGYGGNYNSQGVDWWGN

Regarding `CCCCc1cn(-c2ccc(NC(=O)Nc3ccccc3C(F)(F)F)cc2)nn1` [FHP01], the “inhibition of DDX3X helicase activity, qualitative” value in data set [1] is on record as “activity comparable to RK33”. Also, the results for the plasma concentration profile result in data set [2] (1 mg/kg i.v.), in data set [2] (10 mg/kg i.p.) and in data set [2] (50 mg/kg p.o.) were “rapidly decreasing plasma concentration”, “high plasma concentration” and “high plasma concentration”, respectively.
